Test results published in patent publication US10039759B2, “Quinolines as FGFR kinase modulators” (priority 2011, dated 2018).
Read-outs that look alike come from different tables or passages of the source.

Key:
FGFR3 (h) = FGFR3 (h) (Homo sapiens, UniProt P22607); assay: FGFR3 (enzymatic assay), TR-FRET; type: biochemical; conditions: 60 min, pIC50 = -log IC50 (M), average if tested multiple times
FGFR4 (h) = FGFR4 (h) (Homo sapiens, UniProt P22455); assay: FGFR4 (enzymatic assay), TR-FRET; type: biochemical; conditions: FGFR 4 pIC50, 5 μM ATP, 60 min; pIC50 = -log IC50 (M); average if tested multiple times
KDR (h) = KDR (h) (Homo sapiens, UniProt P35968); assay: KDR (VEGFR2) (enzymatic assay), TR-FRET; type: biochemical; conditions: 120 min, pIC50 = -log IC50 (M), average if tested multiple times
Procedure: KDR (VEGFR2) (Enzymatic Assay)
In a final reaction volume of 30 μL, KDR (h) (150 ng/ml) was incubated with 50 mM HEPES pH 7.5, 6 mM MnCl2, 1 mM DTT, 0.1 mM Na3VO4, 0.01% Triton-X-100, 500 nM Btn-Flt3 and 3 μM ATP in the presence of compound (1% DMSO final). After incubation for 120 minutes at room temperature the reaction was stopped with 2.27 nM EU-anti P-Tyr, 7 mM EDTA, 31.25 nM SA-XL-665 and 0.02% BSA which was present for 60 minutes at room temperature. Time-Resolved Fluorescence Resonance Energy Transfer (TR-FRET) signal (ex340 nm. Em 620 nm, em 655 nm) was measured afterwards and results are expressed in RFU (Relative Fluorescence Units). In this assay, the inhibitory effect of different compound concentrations (range 10 μM to 0.1 nM) was determined and used to calculate an IC50 (M) and pIC50 (−log IC50) value.

[1] = target: T1, Ba/F3-FGFR3-transfected cells (Homo sapiens, UniProt P22607, cells depend on it, form not given); assay: Ba/F3-FGFR3 (minus IL3 or plus IL3) cellular proliferation assay, Alamar Blue; type: cell-based; conditions: minus IL3; 24 hours, Alamar Blue
T1 construct: BAF3-FGFR3 (MIN IL3 Alamar Blue- pIC50); other: minus IL3; 24 hours, Alamar Blue
Procedure: Ba/F3-FGFR3 (Minus IL3 or Plus IL3) (Cellular Proliferation Assay)
(§1) In a 384 well plate, 100 nl of compound dilution in DMSO was sprayed before adding 50 μl cell culture medium (phenol red free RPMI-1640, 10% FBS, 2 mM L-Glutamine and 50 μg/ml Gentamycin) containing 20000 cells per well of Ba/F3-FGFR3-transfected cells. Cells were put in an incubator at 37° C. and 5% CO2. After 24 hours, 10 μl of Alamar Blue solution (0.5 mM K3Fe(CN)6, 0.5 mM K4Fe(CN)6, 0.15 mM Resazurin and 100 mM Phosphate Buffer) was added to the wells, incubated for 4 hours at 37° C. and 5% CO2 before RFU's (Relative Fluorescence Units) (ex. 540 nm., em. 590 nm.) were measured in a fluorescence plate reader.
In this assay, the inhibitory effect of different compound concentrations (range 10 μM to 0.1 nM) was determined and used to calculate an IC50 (M) and pIC50 (−log IC50) value. As a counterscreen the same experiment was performed in the presence of 10 ng/ml murine IL3.

[2] = target: Ba/F3-FGFR4-transfected cells (Homo sapiens, UniProt P22455); assay: Ba/F3-FGFR4 cellular proliferation assay, Alamar Blue; type: cell-based; conditions: 24 hours
Procedure: Ba/F3-FGFR4 (Cellular Proliferation Assay)
as §1, with “Ba/F3-FGFR4-transfected” for “Ba/F3-FGFR3-transfected”
In this assay, the inhibitory effect of different compound concentrations (range 10 μM to 0.1 nM) was determined and used to calculate an IC50 (M) and pIC50 (−log IC50) value.

[3] = 25 μM ATP, read-out: hFGFR 3 pIC50 (converted)
[4] = 3 μM ATP, read-out: VEGFR KDR pIC50 (converted)

T1 sequence (P22607 whole entry, change not shown): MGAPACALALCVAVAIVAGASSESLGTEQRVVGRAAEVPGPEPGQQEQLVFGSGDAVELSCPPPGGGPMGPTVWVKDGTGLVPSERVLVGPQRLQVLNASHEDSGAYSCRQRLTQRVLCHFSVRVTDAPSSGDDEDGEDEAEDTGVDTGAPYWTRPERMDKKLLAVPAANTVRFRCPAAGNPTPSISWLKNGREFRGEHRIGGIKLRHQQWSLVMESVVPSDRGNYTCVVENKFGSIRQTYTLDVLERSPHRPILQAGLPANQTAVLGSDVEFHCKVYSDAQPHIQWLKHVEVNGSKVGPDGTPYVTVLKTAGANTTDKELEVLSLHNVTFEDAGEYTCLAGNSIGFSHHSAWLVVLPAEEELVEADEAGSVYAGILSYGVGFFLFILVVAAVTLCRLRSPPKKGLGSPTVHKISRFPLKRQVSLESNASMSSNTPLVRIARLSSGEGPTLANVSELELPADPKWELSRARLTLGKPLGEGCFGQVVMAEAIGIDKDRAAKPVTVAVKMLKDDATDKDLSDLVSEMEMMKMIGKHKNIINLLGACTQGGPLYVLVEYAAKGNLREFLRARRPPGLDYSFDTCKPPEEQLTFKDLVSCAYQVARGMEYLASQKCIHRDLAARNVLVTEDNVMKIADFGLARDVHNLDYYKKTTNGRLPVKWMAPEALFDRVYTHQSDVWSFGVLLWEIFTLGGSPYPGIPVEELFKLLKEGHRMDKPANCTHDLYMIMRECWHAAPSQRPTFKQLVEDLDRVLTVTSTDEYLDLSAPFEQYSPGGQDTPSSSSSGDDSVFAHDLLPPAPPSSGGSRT
Ba/F3-FGFR4-transfected cells, sequence (P22455 whole entry, change not shown): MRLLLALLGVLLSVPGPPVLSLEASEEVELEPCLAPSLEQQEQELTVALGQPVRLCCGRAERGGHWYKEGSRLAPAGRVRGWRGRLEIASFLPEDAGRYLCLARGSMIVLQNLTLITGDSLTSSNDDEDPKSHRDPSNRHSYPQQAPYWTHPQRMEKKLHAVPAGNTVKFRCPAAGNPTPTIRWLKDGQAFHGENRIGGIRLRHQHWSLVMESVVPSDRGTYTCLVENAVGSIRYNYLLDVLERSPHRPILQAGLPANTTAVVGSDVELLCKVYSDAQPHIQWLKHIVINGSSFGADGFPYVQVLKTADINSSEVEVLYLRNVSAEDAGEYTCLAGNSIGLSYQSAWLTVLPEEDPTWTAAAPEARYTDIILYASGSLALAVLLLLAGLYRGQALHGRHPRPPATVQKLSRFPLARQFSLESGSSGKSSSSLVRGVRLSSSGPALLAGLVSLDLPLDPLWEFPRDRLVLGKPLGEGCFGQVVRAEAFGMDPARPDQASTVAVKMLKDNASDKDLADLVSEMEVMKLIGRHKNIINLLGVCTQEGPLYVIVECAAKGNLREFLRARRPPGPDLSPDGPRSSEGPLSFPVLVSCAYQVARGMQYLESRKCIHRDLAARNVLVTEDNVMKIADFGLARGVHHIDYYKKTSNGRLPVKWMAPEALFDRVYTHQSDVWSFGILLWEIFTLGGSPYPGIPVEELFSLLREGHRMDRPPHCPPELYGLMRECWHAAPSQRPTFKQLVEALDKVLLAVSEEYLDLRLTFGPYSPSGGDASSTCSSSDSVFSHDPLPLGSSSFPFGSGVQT
KDR (h), sequence (P35968 20-1356): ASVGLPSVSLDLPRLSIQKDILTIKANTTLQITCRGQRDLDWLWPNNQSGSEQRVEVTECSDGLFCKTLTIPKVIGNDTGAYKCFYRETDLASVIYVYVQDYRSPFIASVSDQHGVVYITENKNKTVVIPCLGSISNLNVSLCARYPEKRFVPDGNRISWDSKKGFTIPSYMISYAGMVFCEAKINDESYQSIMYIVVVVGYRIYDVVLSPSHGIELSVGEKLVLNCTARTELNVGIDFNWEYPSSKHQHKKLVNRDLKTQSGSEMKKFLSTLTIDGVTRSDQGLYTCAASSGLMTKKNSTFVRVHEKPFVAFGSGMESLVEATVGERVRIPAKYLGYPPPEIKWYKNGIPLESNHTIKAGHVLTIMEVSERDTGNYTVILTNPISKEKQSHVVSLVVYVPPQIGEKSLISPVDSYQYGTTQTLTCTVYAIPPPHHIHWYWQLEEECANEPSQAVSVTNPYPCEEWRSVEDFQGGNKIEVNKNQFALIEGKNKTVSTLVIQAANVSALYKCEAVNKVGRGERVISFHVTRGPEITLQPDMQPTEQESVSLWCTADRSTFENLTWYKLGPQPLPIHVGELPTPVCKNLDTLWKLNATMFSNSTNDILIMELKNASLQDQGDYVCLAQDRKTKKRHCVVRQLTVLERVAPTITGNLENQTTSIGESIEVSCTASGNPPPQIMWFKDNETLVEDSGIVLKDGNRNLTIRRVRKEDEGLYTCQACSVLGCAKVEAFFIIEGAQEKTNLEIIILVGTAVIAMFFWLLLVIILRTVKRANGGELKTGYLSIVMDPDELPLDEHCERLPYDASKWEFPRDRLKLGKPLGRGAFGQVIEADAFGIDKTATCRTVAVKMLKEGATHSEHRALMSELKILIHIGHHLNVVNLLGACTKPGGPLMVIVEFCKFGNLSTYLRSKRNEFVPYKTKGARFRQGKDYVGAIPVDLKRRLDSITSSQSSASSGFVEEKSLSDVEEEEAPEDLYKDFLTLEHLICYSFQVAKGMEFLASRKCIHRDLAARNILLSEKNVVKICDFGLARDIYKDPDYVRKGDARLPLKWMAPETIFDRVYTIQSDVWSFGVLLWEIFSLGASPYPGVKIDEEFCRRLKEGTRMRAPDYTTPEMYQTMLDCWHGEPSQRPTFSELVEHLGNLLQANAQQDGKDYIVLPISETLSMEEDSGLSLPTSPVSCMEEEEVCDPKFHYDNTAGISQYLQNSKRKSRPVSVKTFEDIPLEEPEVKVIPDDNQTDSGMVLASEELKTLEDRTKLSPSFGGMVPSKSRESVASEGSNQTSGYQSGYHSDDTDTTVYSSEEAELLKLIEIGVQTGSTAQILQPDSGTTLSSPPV
FGFR4 (h), sequence (P22455 22-802): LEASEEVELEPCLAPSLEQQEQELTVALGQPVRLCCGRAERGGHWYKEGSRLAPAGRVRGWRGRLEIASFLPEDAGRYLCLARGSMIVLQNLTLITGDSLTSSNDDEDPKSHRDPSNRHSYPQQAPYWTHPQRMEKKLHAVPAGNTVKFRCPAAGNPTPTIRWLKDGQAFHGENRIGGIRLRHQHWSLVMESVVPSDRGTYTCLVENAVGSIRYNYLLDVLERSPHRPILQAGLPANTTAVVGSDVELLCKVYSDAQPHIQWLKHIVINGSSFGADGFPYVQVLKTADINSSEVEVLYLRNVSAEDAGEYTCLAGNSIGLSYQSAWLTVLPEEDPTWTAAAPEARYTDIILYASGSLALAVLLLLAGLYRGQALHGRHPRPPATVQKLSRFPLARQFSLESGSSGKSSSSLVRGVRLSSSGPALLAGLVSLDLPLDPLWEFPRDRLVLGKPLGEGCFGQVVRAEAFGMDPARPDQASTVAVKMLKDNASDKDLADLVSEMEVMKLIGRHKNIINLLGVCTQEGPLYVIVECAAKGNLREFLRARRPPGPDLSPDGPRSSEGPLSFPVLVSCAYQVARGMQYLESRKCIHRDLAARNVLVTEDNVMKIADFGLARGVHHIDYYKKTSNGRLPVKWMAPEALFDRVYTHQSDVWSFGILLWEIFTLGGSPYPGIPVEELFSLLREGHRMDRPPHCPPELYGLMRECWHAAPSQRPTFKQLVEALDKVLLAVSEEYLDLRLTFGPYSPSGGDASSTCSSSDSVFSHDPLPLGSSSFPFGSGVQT
FGFR3 (h), sequence (P22607 23-806): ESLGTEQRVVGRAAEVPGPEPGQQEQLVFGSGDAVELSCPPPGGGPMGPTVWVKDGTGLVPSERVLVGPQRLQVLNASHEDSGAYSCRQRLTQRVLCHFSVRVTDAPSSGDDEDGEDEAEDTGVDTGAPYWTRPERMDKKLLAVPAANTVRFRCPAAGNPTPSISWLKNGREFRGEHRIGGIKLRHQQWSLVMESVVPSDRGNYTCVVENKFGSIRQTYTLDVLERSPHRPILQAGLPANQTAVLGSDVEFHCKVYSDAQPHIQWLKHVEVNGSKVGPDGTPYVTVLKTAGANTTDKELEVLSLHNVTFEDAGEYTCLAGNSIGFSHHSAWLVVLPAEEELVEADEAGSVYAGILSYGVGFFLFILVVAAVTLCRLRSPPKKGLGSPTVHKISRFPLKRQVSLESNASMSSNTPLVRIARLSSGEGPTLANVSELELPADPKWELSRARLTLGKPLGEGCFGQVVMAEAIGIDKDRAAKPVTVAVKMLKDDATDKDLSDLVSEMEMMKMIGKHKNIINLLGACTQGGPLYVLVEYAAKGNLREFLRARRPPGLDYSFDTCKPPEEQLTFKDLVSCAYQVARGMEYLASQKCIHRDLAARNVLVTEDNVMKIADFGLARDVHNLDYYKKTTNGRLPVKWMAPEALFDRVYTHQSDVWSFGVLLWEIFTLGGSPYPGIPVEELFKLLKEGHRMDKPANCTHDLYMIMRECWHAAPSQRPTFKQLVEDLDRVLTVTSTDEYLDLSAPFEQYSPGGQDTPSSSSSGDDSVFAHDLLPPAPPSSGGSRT

Work on `COc1cc(OC)cc(N(CC(O)C(F)(F)F)c2ccc3ncc(-c4cnn(C)c4)cc3c2)c1` (single isomer, unassigned) [Compound 24] yielded an IC50 (FGFR3 (h); [3]) of roughly 1.1e-09 M, an IC50 (FGFR4 (h)) of 7.94e-09 M and an IC50 (KDR (h); [4]) of 2.88e-07 M. The “BAF3-FGFR3 (MIN IL3 Alamar Blue- pIC50)” value [1] was roughly 7.67 and the “BAF3-FGFR 4 (pIC50)” value [2] was 6.6.
`COc1cc(OC)cc(N(CC(O)C(F)(F)F)c2ccc3ncc(-c4cnn(C)c4)cc3c2)c1` (single isomer, unassigned) [Compound 25] showed an IC50 (FGFR3 (h); [3]) of 5.89e-09 M, an IC50 (FGFR4 (h)) of 6.03e-08 M and an IC50 (KDR (h); [4]) of 5.89e-07 M. The “BAF3-FGFR3 (MIN IL3 Alamar Blue- pIC50)” value [1] was 6.76 and the “BAF3-FGFR 4 (pIC50)” value [2] was 6.07.
Work on `COc1cc(OC)cc(N(CCNC(C)C)c2ccc3ncc(-c4cnn(C)c4)cc3c2)c1` [Compound 1] yielded an IC50 (FGFR3 (h); [3]) of 7.94e-09 M, an IC50 (FGFR4 (h)) of 1.38e-08 M and an IC50 (KDR (h); [4]) of 7.41e-08 M. For the same molecule, the “BAF3-FGFR3 (MIN IL3 Alamar Blue- pIC50)” value [1] was 7.555 and the “BAF3-FGFR 4 (pIC50)” value [2] was 7.19.
Molecule `COc1cc(OC)c(F)c(N(CCNC(C)C)c2ccc3ncc(-c4cnn(C)c4)cc3c2)c1` [Compound 2] has an IC50 (FGFR3 (h); hFGFR 3 pIC50, 25 μM ATP) of 3.89e-09 M, an IC50 (FGFR4 (h)) of 3.98e-09 M and an IC50 (KDR (h); [4]) of 2.57e-08 M. For the same molecule, the “BAF3-FGFR3 (MIN IL3 Alamar Blue- pIC50)” value [1] was 7.86 and the “BAF3-FGFR 4 (pIC50)” value [2] was 7.83.
Work on `COc1cc(OC)cc(N(CCO)c2ccc3ncc(-c4cnn(C)c4)cc3c2)c1` [Compound 3] yielded an IC50 (FGFR3 (h); [3]) of 4.17e-09 M, an IC50 (FGFR4 (h)) of 3.8e-08 M and an IC50 (KDR (h); [4]) of 9.12e-08 M. For the same molecule, the “BAF3-FGFR3 (MIN IL3 Alamar Blue- pIC50)” value [1] was 6.33 and the “BAF3-FGFR 4 (pIC50)” value [2] was 6.11.
`COc1cc(OC)cc(N(CCCO)c2ccc3ncc(-c4cnn(C)c4)cc3c2)c1` [Compound 4] was tested, and the IC50 (FGFR3 (h); [3]) was 5.89e-09 M, the IC50 (FGFR4 (h)) was 3.09e-08 M and the IC50 (KDR (h); [4]) was 1.38e-07 M. For the same molecule, the “BAF3-FGFR3 (MIN IL3 Alamar Blue- pIC50)” value [1] was 6.17 and the “BAF3-FGFR 4 (pIC50)” value [2] was 5.87.
In the case of `COc1cc(OC)cc(N(CCCNCC(F)(F)F)c2ccc3ncc(-c4cnn(C)c4)cc3c2)c1` [Compound 5], the IC50 (FGFR3 (h); [3]) is reported as 2.29e-08 M, the IC50 (FGFR4 (h)) is reported as 9.12e-08 M and the IC50 (KDR (h); [4]) is reported as 2.45e-07 M. For the same molecule, the “BAF3-FGFR3 (MIN IL3 Alamar Blue- pIC50)” value [1] was 5.67 and the “BAF3-FGFR 4 (pIC50)” value [2] was 5.5.
With `C#CCN(c1cc(OC)cc(OC)c1)c1ccc2ncc(-c3cnn(C)c3)cc2c1` [Compound 6] the IC50 (FGFR3 (h); [3]) was 1.35e-08 M, the IC50 (FGFR4 (h)) was 1.51e-07 M and the IC50 (KDR (h); [4]) was 4.27e-07 M. The “BAF3-FGFR3 (MIN IL3 Alamar Blue- pIC50)” value [1] was 5.79 and the “BAF3-FGFR 4 (pIC50)” value [2] was 5.4.
`COc1cc(OC)cc(N(CC2CCN(c3nccc(OC)n3)C2)c2ccc3ncc(-c4cnn(C)c4)cc3c2)c1` (stereo not drawn) [Compound 7] gave an IC50 (FGFR3 (h); [3]) of 9.12e-07 M, an IC50 (FGFR4 (h)) greater than 1e-06 M and an IC50 (KDR (h); [4]) greater than 1e-06 M. The “BAF3-FGFR3 (MIN IL3 Alamar Blue- pIC50)” value [1] was less than 5 and the “BAF3-FGFR 4 (pIC50)” value [2] was less than 5.
For `COc1cc(OC)cc(N(Cc2ncccn2)c2ccc3ncc(-c4cnn(C)c4)cc3c2)c1` [Compound 8], the IC50 (FGFR3 (h); [3]) was 3.24e-08 M, the IC50 (FGFR4 (h)) was 1.17e-07 M and the IC50 (KDR (h); [4]) was 8.13e-07 M. For the same molecule, the “BAF3-FGFR3 (MIN IL3 Alamar Blue- pIC50)” value [1] was 6.14 and the “BAF3-FGFR 4 (pIC50)” value [2] was 5.64.
`COc1cc(OC)cc(N(Cc2nccn2S(=O)(=O)N(C)C)c2ccc3ncc(-c4cnn(C)c4)cc3c2)c1` [Compound 9] gave an IC50 (FGFR3 (h); [3]) of 1.1e-08 M, an IC50 (FGFR4 (h)) of 1.45e-07 M and an IC50 (KDR (h); [4]) of 1.66e-07 M. For the same molecule, the “BAF3-FGFR3 (MIN IL3 Alamar Blue- pIC50)” value [1] was 6.17 and the “BAF3-FGFR 4 (pIC50)” value [2] was 5.18.
Molecule `COc1cc(OC)cc(N(CCCN2CCCC2=O)c2ccc3ncc(-c4cnn(C)c4)cc3c2)c1` [Compound 10] has an IC50 (FGFR3 (h); [3]) of 1.55e-08 M, an IC50 (FGFR4 (h)) of 8.32e-08 M and an IC50 (KDR (h); VEGFR KDR pIC50, 3 μM ATP) of 8.13e-08 M. For the same molecule, the “BAF3-FGFR3 (MIN IL3 Alamar Blue- pIC50)” value [1] was 6.2 and the “BAF3-FGFR 4 (pIC50)” value [2] was 5.63.
`COc1cc(OC)cc(N(CCCN)c2ccc3ncc(-c4cnn(C)c4)cc3c2)c1` [Compound 11] gave an IC50 (FGFR3 (h); [3]) of 3.39e-09 M, an IC50 (FGFR4 (h)) of 2e-08 M and an IC50 (KDR (h); [4]) of 4.47e-08 M. The “BAF3-FGFR3 (MIN IL3 Alamar Blue- pIC50)” value [1] was 6.97 and the “BAF3-FGFR 4 (pIC50)” value [2] was 6.39.
`COc1cc(OC)cc(C(O)c2ccc3ncc(-c4cnn(C)c4)cc3c2)c1` (stereo not drawn) [Compound 12] gave an IC50 (FGFR3 (h); [3]) of 2.34e-07 M, an IC50 (FGFR4 (h)) greater than 9.33e-07 M and an IC50 (KDR (h); [4]) greater than 1e-06 M. For the same molecule, the “BAF3-FGFR3 (MIN IL3 Alamar Blue- pIC50)” value [1] was roughly 5.075 and the “BAF3-FGFR 4 (pIC50)” value [2] was less than 5.
Molecule `COc1cc(OC)cc(N(CCNC(C)C)c2ccc3ncc(-c4cnn(CCS(C)(=O)=O)c4)cc3c2)c1` [Compound 14] has an IC50 (FGFR3 (h); [3]) of 3.47e-09 M, an IC50 (FGFR4 (h)) of 7.41e-09 M and an IC50 (KDR (h); [4]) of 9.55e-08 M. The “BAF3-FGFR3 (MIN IL3 Alamar Blue- pIC50)” value [1] was roughly 6.95 and the “BAF3-FGFR 4 (pIC50)” value [2] was 6.7.
